Test results published in ChEMBL document CHEMBL1201862, “PubChem BioAssay data set” (2004).
Active and inactive are the calls of the source.

Tests used:
[1] = inhibitors of intracellular T. cruzi replication, confirmation, NIH3T3 host cells, beta-gal luminescence (AID 2044); type: functional, cell-based;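 further: intracellular parasites grown in NIH/3T3 mouse fibroblasts as host cells; luminescent beta-galactosidase reporter signal from transgenic T. cruzi replicating inside host cells; inhibitors lower the luminescence signal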
[2] = cytotoxicity toward NIH3T3 fibroblasts, dose response, counter-screen, cell-based, ATP luminescence, mouse fibroblasts (AID 2010); type: functional;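 further: cells exposed to compound for about 90 hours before reading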
[3] = system: Vero; experiment: West Nile virus antiviral activity, cell-based, CPE readout (AID 1621); type: functional; conditions: Chlorocebus sabaeus
[4] = cells
[5] = biological target: Peroxisome proliferator-activated receptor gamma/Nuclear receptor corepressor 2 (Homo sapiens, UniProt P37231+Q9Y618); experiment: Counterscreen for NR2E3 inverse agonists: TR-FRET-based biochemical high throughput dose response assay to identify inverse agonists of the interaction between peroxisome proliferator-activated receptor gamma (PPARg) and nuclear receptor co-repressor 2 (NCOR2).; type: functional
[6] = biological target: Photoreceptor-specific nuclear receptor (Homo sapiens, UniProt Q9Y5X4); experiment: NR2E3 inverse agonists, dose response, biochemical, TR-FRET (AID 463256); type: functional
Photoreceptor-specific nuclear receptor, sequence (Q9Y5X4 whole entry): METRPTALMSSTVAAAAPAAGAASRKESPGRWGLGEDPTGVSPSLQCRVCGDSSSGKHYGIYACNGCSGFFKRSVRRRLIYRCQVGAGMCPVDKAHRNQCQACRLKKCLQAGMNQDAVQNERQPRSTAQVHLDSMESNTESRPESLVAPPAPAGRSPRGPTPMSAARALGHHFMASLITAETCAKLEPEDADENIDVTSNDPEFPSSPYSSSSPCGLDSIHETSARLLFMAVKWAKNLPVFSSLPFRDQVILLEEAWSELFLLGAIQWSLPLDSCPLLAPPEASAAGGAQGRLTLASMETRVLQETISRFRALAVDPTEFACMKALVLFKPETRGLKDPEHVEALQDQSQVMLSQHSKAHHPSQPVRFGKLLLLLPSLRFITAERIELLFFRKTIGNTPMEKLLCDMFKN

[7] = Luminescent dose response cell-based high throughput screening assay for inhibitors of the Janus kinase 2 mutant JAK2V617F. [Related pubchem assays: 1446 (Primary screen.), 1521 (Confirmation assay.), 1486 (Counter screen.)]; type: functional
[8] = biological target: T1, Sphingosine 1-phosphate receptor 4 (Homo sapiens, UniProt O95977); experiment: Late stage fluorescence dose response cell-based screening assay for antagonists of the Sphingosine 1-Phosphate Receptor 4 (S1P4). [Related pubchem assays: 1524 (Confirmation screen (S1P4 antagonists).), 1510 (Primary screen (S1P4 antagonists).), 1853 (Summary AID (S1P4 antagonists).), 1692 (Dose response screen (S1P4 antagonists).)]; type: functional
T1 sequence (O95977 whole entry): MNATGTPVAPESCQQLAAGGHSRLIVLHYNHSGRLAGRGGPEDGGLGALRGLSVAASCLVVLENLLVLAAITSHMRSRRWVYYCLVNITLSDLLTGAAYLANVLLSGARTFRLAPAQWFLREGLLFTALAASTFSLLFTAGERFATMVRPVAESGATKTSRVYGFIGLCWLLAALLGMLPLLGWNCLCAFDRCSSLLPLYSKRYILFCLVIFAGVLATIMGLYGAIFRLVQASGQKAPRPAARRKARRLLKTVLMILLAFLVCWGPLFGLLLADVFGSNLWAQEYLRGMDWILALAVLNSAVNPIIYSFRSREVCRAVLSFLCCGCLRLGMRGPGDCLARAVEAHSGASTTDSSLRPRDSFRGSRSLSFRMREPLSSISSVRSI

[9] = biological target: T1, Sphingosine 1-phosphate receptor 4; experiment: Fluorescence dose response cell-based high throughput screening assay for antagonists of the Sphingosine 1-Phosphate Receptor 4 (S1P4). [Related pubchem assays: 1524 (Confirmation in triplicates.), 1510 (Primary screen.)]; type: functional
[10] = biological target: Sphingosine 1-phosphate receptor 1 (Homo sapiens, UniProt P21453); type: functional;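 further: Tango beta-arrestin reporter U2OS cells stimulated with S1P near its EC80; inhibitor potency meaning antagonism of receptor activation by the natural agonist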
Sphingosine 1-phosphate receptor 1, sequence (P21453 whole entry): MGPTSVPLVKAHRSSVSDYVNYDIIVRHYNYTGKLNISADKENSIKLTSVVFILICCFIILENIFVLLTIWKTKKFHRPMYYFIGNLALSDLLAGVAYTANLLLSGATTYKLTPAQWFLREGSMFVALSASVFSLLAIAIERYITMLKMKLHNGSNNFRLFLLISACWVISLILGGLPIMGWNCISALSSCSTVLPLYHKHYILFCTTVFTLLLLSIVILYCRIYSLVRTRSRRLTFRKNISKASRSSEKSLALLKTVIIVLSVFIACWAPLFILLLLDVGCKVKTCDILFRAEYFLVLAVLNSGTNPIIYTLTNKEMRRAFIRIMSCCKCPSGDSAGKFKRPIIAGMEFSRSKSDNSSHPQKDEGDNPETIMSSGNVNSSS

[11] = THP-1 cell cytotoxicity, dose response, cytotoxicity control for non-replicating M. tuberculosis project (AID 489025); type: functional
[12] = biological target: Heat shock protein HSP 90-alpha (Homo sapiens, UniProt P07900); type: functional, organism-based
[13] = biological target: T2, High affinity choline transporter 1 (Homo sapiens, UniProt Q9GZV3); experiment: CHT inhibitors, dose response, cell-based, 5-point CRC, membrane potential dye (AID 504840); type: functional
T2 sequence (Q9GZV3 whole entry): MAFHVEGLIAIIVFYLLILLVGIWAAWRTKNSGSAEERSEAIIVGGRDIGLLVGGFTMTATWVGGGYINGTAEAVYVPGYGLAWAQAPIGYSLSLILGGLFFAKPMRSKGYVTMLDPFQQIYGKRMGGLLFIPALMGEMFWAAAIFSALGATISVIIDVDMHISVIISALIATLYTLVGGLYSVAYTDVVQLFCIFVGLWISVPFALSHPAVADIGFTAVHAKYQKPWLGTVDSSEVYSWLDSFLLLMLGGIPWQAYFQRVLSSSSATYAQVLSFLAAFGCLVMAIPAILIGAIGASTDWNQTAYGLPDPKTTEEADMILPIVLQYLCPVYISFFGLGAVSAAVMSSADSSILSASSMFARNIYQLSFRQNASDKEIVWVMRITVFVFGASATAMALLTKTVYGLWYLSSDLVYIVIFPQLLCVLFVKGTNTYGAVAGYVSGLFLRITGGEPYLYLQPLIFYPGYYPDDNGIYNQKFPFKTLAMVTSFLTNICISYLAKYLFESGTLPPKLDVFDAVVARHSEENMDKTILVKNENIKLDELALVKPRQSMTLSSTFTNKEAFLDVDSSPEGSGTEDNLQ

[14] = system: INS1; experiment: beta cell apoptosis inhibitors, cytokine rescue, dose response, luminescence, retest (AID 449756); type: functional, cell-based; conditions: Rattus norvegicus;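 further: cell death triggered by IL-1 beta plus TNF-alpha plus IFN-gamma mixture; protective hits raise ATP signal compared with cytokine alone wells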
[15] = inhibitors of PGC1a acetylation in cells, dose response, cell-based, cherry-picked samples (AID 720514); type: functional;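 further: potency may reflect raised or lowered acetylation signal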
[16] = A549 cell cytotoxicity, dose response, cytotoxicity control, plate reader, cherry-pick, antagonist series (AID 743412); type: functional, cell-based
[17] = HepG2 cell cytotoxicity, dose response, cytotoxicity control, plate reader, cherry-pick, antagonist series (AID 743416); type: functional, cell-based
[18] = LGR2 antagonists, dose response, cell-based, HEK293, CRE-luciferase reporter, cherry pick, set 2 (AID 743343); type: functional;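 further: transfected cells were stimulated with diluted bursicon conditioned medium after compound addition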
[19] = MC4R antagonists, dose response, counter-screen for LGR2 antagonist project, cell-based, plate reader, cherry pick (AID 743444); type: functional;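 further: transfected HEK 293 cells stimulated with alpha-MSH peptide; potency of inhibitors of the alpha-MSH evoked signal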
[20] = HEK293 cell cytotoxicity, dose response, cytotoxicity control, plate reader, cherry-picked samples (AID 743446); type: functional, cell-based
[21] = biological target: Luciferin 4-monooxygenase (Photinus pyralis, UniProt P08659); experiment: firefly luciferase enzyme inhibitors, dose response, biochemical, luminescence (AID 1891)
Luciferin 4-monooxygenase, sequence (P08659 whole entry): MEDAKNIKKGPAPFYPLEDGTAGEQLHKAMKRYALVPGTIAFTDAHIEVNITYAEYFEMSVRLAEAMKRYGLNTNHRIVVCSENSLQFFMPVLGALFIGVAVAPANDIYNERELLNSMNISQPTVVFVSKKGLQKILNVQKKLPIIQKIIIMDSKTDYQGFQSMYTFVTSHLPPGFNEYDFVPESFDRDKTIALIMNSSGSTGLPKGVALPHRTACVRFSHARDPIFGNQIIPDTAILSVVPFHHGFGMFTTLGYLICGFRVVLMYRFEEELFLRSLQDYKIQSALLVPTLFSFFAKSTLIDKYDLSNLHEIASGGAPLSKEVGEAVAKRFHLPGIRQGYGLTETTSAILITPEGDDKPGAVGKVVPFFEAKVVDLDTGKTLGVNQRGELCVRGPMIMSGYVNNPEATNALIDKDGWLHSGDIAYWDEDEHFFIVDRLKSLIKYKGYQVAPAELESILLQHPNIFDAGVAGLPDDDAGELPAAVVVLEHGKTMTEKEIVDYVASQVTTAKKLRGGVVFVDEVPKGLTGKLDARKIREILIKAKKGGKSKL

[22] = Luminescence Cell-Based Dose Confirmation HTS to Identify Inhibitors of Platelet Dense Granule Release. [Related pubchem assays: 1663 (Primary HTS), 1678 (Summary of Project)]; type: functional
[23] = Fluorescence Cell-Based Dose Response to Identify Inhibitors of Thrombin Receptor-Activating Peptide SFLLRN-Mediated P-Selectin Induction on Platelets. [Related pubchem assays: 1663 (Primary HTS), 1889 (retest at dose ), 1891 (counterscreen), 1678 (Project Summary)]; type: functional
[24] = biological target: Heat shock protein HSP90 (Homo sapiens, UniProt P07900+P08238); experiment: tumor Hsp90 inhibitor potency, dose response (AID 712); type: functional
[25] = biological target: T3, Mannose-6-phosphate isomerase (Homo sapiens, UniProt P34949); experiment: human PMI inhibitors, high substrate, primary screen, biochemical, fluorescence intensity, high mannose 6-phosphate (AID 1220)
T3 sequence (P34949 whole entry): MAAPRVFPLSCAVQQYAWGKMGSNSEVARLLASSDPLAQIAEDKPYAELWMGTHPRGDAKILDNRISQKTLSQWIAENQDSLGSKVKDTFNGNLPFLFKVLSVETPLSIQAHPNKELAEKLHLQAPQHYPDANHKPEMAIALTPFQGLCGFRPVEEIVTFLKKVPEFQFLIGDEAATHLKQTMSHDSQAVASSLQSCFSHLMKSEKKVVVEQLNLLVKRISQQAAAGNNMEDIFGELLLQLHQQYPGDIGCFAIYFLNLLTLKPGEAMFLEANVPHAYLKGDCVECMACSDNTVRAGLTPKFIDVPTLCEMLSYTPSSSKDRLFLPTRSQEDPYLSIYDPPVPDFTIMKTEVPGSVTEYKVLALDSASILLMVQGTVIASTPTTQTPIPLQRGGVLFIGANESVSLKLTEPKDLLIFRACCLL

[26] = biological target: T4, Replicative DNA helicase DnaB (Mycobacterium tuberculosis, UniProt P9WMR3); experiment: DnaB intein splicing inhibitors, dose response, biochemical, cell-free fluorescence (AID 449749); type: functional
T4 sequence (P9WMR3 whole entry): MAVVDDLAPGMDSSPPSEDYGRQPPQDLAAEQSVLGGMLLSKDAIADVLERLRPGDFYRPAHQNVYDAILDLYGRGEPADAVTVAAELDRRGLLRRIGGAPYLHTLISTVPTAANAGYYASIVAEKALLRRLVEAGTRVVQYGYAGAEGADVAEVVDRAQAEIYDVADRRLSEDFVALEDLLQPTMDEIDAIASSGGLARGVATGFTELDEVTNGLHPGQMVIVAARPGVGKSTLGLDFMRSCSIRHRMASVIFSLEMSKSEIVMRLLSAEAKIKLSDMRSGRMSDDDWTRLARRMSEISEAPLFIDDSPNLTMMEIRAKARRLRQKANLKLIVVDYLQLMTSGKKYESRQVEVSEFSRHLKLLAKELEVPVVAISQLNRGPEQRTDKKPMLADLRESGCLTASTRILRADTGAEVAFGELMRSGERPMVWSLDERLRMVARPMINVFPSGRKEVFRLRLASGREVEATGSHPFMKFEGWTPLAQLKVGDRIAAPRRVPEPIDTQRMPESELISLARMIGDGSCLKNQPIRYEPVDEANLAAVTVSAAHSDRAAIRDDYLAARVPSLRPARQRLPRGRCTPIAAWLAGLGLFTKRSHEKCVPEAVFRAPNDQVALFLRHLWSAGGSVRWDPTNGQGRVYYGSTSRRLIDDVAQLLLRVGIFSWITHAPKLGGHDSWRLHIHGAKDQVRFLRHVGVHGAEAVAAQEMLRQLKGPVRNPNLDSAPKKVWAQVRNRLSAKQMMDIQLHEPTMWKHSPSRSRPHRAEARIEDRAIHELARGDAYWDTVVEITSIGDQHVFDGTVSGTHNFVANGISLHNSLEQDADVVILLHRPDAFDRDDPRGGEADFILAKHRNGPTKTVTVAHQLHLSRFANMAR

[27] = biological target: T5, Protein RecA (Mycobacterium tuberculosis, UniProt P9WHJ3); experiment: Fluorescence Cell-Free Homogeneous Dose Retest to Identify Inhibitors of RecA-Intein Splicing Activity. [Related pubchem assays (depositor defined):AID2097, AID2223, AID489010, AID492950]; type: functional
T5 sequence (P9WHJ3 whole entry): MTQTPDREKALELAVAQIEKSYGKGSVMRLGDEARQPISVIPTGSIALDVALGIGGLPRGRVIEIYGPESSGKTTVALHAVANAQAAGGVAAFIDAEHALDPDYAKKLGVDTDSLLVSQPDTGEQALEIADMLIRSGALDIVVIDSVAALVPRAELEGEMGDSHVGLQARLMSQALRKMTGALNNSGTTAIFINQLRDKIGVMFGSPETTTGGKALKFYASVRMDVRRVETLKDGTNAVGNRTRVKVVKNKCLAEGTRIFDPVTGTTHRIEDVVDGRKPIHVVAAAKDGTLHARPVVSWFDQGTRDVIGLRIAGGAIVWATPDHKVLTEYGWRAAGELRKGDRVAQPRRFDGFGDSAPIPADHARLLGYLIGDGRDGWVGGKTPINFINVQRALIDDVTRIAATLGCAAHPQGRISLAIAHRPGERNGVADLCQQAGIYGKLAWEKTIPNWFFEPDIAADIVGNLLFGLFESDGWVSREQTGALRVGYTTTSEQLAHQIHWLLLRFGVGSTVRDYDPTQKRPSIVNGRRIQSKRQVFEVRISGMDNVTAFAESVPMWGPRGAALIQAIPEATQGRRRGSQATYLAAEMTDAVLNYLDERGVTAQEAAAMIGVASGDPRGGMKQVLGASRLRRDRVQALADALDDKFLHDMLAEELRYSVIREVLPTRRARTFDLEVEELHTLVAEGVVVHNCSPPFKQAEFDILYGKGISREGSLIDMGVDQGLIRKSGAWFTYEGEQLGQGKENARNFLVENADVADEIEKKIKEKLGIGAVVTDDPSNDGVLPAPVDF

[28] = biological target: Voltage-gated inwardly rectifying potassium channel KCNH2 (Homo sapiens, UniProt Q12809); experiment: hERG protection from proarrhythmic block, potency, dose response, cell-based, thallium flux (AID 2121); type: ADME
Voltage-gated inwardly rectifying potassium channel KCNH2, sequence (Q12809 whole entry): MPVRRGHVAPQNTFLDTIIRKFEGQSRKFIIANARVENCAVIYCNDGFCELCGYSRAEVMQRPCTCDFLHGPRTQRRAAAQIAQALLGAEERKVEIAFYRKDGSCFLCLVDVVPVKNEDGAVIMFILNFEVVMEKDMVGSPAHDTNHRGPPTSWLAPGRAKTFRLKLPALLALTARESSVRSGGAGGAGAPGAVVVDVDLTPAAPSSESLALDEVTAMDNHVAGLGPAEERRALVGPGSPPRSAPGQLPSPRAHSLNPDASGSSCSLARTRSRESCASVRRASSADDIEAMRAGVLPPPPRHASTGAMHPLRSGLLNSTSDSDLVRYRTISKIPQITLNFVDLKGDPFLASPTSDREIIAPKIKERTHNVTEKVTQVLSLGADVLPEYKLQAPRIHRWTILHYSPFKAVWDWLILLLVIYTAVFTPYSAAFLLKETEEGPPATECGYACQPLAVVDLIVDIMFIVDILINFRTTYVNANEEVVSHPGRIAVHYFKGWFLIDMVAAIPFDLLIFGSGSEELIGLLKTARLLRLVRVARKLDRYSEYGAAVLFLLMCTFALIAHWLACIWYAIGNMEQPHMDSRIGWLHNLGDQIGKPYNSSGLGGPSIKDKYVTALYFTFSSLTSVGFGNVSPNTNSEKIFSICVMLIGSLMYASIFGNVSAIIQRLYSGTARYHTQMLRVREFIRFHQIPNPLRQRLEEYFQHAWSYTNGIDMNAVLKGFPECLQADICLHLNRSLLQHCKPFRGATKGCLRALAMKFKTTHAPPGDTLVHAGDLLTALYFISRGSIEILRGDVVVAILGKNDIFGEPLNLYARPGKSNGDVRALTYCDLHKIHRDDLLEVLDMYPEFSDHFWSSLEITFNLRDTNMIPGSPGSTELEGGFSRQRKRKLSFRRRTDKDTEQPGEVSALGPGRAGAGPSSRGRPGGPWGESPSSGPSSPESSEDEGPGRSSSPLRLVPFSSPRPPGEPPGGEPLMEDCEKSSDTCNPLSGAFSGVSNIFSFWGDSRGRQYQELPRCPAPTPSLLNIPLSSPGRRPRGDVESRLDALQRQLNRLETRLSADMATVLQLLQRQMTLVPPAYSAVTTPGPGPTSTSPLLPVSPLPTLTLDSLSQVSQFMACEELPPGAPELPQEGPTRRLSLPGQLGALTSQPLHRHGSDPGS

## CCN1CCN(c2ccc(S(=O)(=O)N3CCCCC3)cc2NC(=O)Cc2c(Cl)cccc2Cl)CC1
[1]
  EC50: < 0.1 µM (active)
[2]
  EC50: 49.2 µM (active)
[3]
  IC50: 27.1 µM (active)
[4]
  EC50: 0.06 µM (active)

## Cc1ccc2[nH]c(CCN(C)C)c(CN3CCOCC3)c2c1
[5]
  IC50: 10.7 µM (not active)
[6]
  IC50: 6.09 µM (active)

## COc1ccc([N+](=O)[O-])c(S(=O)(=O)c2ccc(Cl)cc2)n1
[7]
  IC50: 0.81 µM (active)
[8]
  IC50: 1.15 µM (not active)
[9]
  IC50: 0.391 µM (active)
[10]
  IC50: 4.73 µM (active)
[11]
  CC50: 38.1 µM (active)
[12]
  AC50: 0.753 µM (active)
[13]
  IC50: 11 µM (active)
[14]
  AC50: 6.17 µM (active)
[15]
  AC50: 8.16 µM (active)
[16]
  AC50: 7.69 µM (active)
[17]
  AC50: 7.08 µM (active)
[18]
  AC50: 2.64 µM (active)
[19]
  AC50: 3.78 µM (active)
[20]
  AC50: 10 µM (active)

## COc1ccccc1C(=O)Nc1cnc(O)nc1O
[21]
  EC50: > 112 µM (not active)
[22]
  EC50: 0.25 µM (active)
[23]
  EC50: < 0.3 µM (active)

## Oc1ccc(/C=N/c2ccc3ncccc3c2)c(O)c1
[24]
  IC50: > 50 µM
[25]
  IC50: > 50 µM (not active)
[26]
  AC50: 11.5 µM (active)
[27]
  EC50: 29 µM (active)

## COC(=O)c1ccc(CSc2ncnc3sc(C)c(C)c23)o1
[28]
  EC50: 11.1 µM (active)
